As a reminder, the vapor or sublimation pressure is the equilibrium pressure above the liquid or solid.

Structures are written as SMILES. Numbers after ± are expanded uncertainties.

For this data set the following is noted: Liquid, Ebulliometric method (Recirculating still).

Regarding `C1CCSC1` [tetrahydrothiophene], the “vapor or sublimation pressure” value by setting is: (344.79 K) 20.39 ± 0.35 kPa; (357.27 K) 32.09 ± 0.36 kPa; (365.3 K) 42.29 ± 0.37 kPa; (372.09 K) 52.61 ± 0.38 kPa; (377.89 K) 63.09 ± 0.39 kPa; (382.18 K) 71.89 ± 0.41 kPa. The “vapor or sublimation pressure” value runs as follows: (386.25 K) 81.18 ± 0.42 kPa; (390.38 K) 91.67 ± 0.44 kPa; (394.05 K) 102.02 ± 0.45 kPa.

Take `Cc1ccccc1C` [1,2-dimethylbenzene]: the “vapor or sublimation pressure” value was 20.4 ± 0.35 kPa (365.49 K); 30.14 ± 0.35 kPa (376.75 K); 40.2 ± 0.36 kPa (385.55 K); 50.43 ± 0.37 kPa (392.87 K); 60.03 ± 0.38 kPa (398.66 K); 70.27 ± 0.4 kPa (404.09 K). The “vapor or sublimation pressure” value (408.83 K) worked out at 80.41 ± 0.41 kPa, the “vapor or sublimation pressure” value (413.06 K) was 90.54 ± 0.43 kPa and the “vapor or sublimation pressure” value (417.28 K) was 101.85 ± 0.44 kPa.

The values above are taken from the NIST ThermoML archive (doi:10.1016/j.fluid.2009.11.017).
